In BigSolDB 2.1:

C1CN2CN3CCN(CN1C3)C2
in water
Settings | solubility (mole fraction)
275 K | 0.0905
277 K | 0.0925
279 K | 0.0946
283 K | 0.0999
288 K | 0.105
293 K | 0.109
298 K | 0.113
303 K | 0.119

Cc1ccccc1
Settings | solubility (mole fraction)
in water, 295.7 K | 0.000112

CN1C(C(=O)Nc2ccccn2)=C(O)c2sc(Cl)cc2S1(=O)=O
298.15 K
Settings | solubility (mole fraction)
in ethanol | 1.3e-05
in water | 3e-06

CC(=O)N1CCN(c2ccc(OC[C@@H]3CO[C@@](Cn4ccnc4)(c4ccc(Cl)cc4Cl)O3)cc2)CC1 (racemic)
solubility (mole fraction)
Settings | in 1,4-dioxane | in NMP | in ethanol | in isopropanol | in propylene glycol | in transcutol
293.2 K | 0.00683 | 0.019 | 0.00275 | 0.000773 | 0.00161 | 0.0116
298.2 K | 0.00833 | 0.023 | 0.00358 | 0.000948 | 0.00219 | 0.0136
303.2 K | 0.00983 | 0.0282 | 0.00434 | 0.00121 | 0.00293 | 0.0159
308.2 K | 0.0121 | 0.0321 | 0.00561 | 0.0018 | 0.00348 | 0.0189
313.2 K | 0.0139 | 0.0376 | 0.00649 | 0.00237 | 0.00507 | 0.0212

CN1COCN(Cc2cnc(Cl)s2)C1=N[N+](=O)[O-]
in methanol
Settings | solubility (mole fraction)
288.15 K | 0.00111
293.15 K | 0.00141
298.15 K | 0.00169
303.15 K | 0.00225
308.15 K | 0.00294
313.15 K | 0.00397
318.15 K | 0.00486
323.15 K | 0.0063

N[C@@H](Cc1cnc[nH]1)C(=O)O
in water
Settings | solubility (mole fraction)
283.15 K | 0.0035
288.15 K | 0.00384
293.15 K | 0.00417
298.15 K | 0.00459
303.15 K | 0.0051
308.15 K | 0.00562
313.15 K | 0.00613
318.15 K | 0.00667

O=c1[nH]cc(F)c(=O)[nH]1
solubility (mole fraction)
Settings | 283.15 K | 288.15 K | 293.15 K | 298.15 K | 303.15 K | 308.15 K | 313.15 K | 318.15 K | 323.15 K
in THF | 0.000217 | 0.000286 | 0.000359 | 0.000471 | 0.000618 | 0.000763 | 0.000961 | 0.0012 | 0.00151
in water | – | – | – | 0.00248 | – | – | – | – | –

O=C(O)CNCP(=O)(O)O
in water
Settings | solubility (mole fraction)
293.67 K | 0.00112
302.65 K | 0.0014
311.95 K | 0.00174
317.15 K | 0.00202
322.15 K | 0.00226
327 K | 0.0025
332.35 K | 0.00285

O=C1Nc2ccc(Cl)cc2C(c2ccccc2Cl)=NC1O (stereo not given)
Settings | solubility (mole fraction)
in PEG-200, 303.2 K | 0.0958

Settings | solubility (mole fraction)
in water, 303.2 K | 3e-06

O=C(O)c1ccccc1O
298.15 K
Settings | solubility (mole fraction)
in 1,4-dioxane | 0.261
in ethanol | 0.145
in ethyl acetate | 0.138
in methanol | 0.122
in water | 0.0003

Settings | solubility (mole fraction)
in PEG-300, 298.15 K | 0.493

Cc1ccccc1C(=O)O
in cyclohexane
Settings | solubility (mole fraction)
295.45 K | 0.0146
304.95 K | 0.0279
316.65 K | 0.0515
319.4 K | 0.0615
325.2 K | 0.0885
329.35 K | 0.106
333.45 K | 0.138
338.15 K | 0.185

CS(=O)(=O)c1ccc([C@@H](O)[C@@H](CF)NC(=O)C(Cl)Cl)cc1
in water
Settings | solubility (mole fraction)
293.15 K | 5.05e-05
296.85 K | 6.15e-05
300.75 K | 8.19e-05
304.55 K | 8.52e-05
308.25 K | 9.71e-05
312.15 K | 0.000122
316.25 K | 0.000147

C1=Cc2nc1c(-c1ccccc1)c1ccc([nH]1)c(-c1ccccc1)c1nc(c(-c3ccccc3)c3ccc([nH]3)c2-c2ccccc2)C=C1
in ethanol
Settings | solubility (mole fraction)
303.2 K | 1.76e-06
313.2 K | 2.31e-06
323.2 K | 3.06e-06
333.2 K | 4.01e-06

O=c1ccc2ccccc2o1
in water
Settings | solubility (mole fraction)
298.15 K | 0.000235
303.15 K | 0.000319
308.15 K | 0.000388
313.15 K | 0.000439

O=c1c(-c2ccc(O)cc2)coc2c([C@@H]3O[C@H](CO)[C@@H](O)[C@H](O)[C@H]3O)c(O)ccc12
in methanol
Settings | solubility (mole fraction)
293.15 K | 0.00714
303.15 K | 0.00787
313.15 K | 0.00858
323.15 K | 0.00932
333.15 K | 0.0102

C=CC1=C(C(=O)O)N2C(=O)[C@@H](NC(=O)/C(=N\OCC(=O)O)c3csc(N)n3)[C@H]2SC1
in water
Settings | solubility (mole fraction)
293.15 K | 1.38e-05
298.15 K | 1.65e-05
303.15 K | 2.01e-05
308.15 K | 2.49e-05
313.15 K | 3.14e-05
323.15 K | 4.74e-05
333.15 K | 7.01e-05

O=C(O)c1ccc(C(=O)O)c(C(=O)O)c1
in acetic acid
Settings | solubility (mole fraction)
313.2 K | 0.00168
323.2 K | 0.00311
333.2 K | 0.0048
343.2 K | 0.00676
353.2 K | 0.0087
363.2 K | 0.0106

C[C@@H](O)[C@H]1C(=O)N2C(C(=O)O)=C(S[C@@H]3CN[C@H](C(=O)N(C)C)C3)[C@H](C)[C@H]12.O.O.O
in water
Settings | solubility (mole fraction)
278.15 K | 0.000408
283.15 K | 0.000445
288.15 K | 0.00051
293.15 K | 0.000556
298.15 K | 0.00066
303.15 K | 0.000782

O=C1NC(=O)C(c2ccccc2)(c2ccccc2)N1
solubility (mole fraction)
Settings | 293.15 K | 298.2 K | 303.2 K | 308.2 K | 313.15 K | 313.2 K
in NMP | 0.119 | – | – | – | 0.116 | –
in transcutol | – | 0.00133 | 0.00144 | 0.00151 | – | 0.00166
in water | 9.7e-07 | 1.51e-06 | 1.72e-06 | 1.88e-06 | 1.91e-06 | 2.08e-06

OCCCCCCO
in ethyl acetate
Settings | solubility (mole fraction)
278.15 K | 0.0148
283.15 K | 0.0274
288.15 K | 0.0387
293.15 K | 0.0512
298.15 K | 0.0834

CCC1=C(C)CN(C(=O)NCCc2ccc(S(=O)(=O)NC(=O)NC3CCC(C)CC3)cc2)C1=O (stereo not given)
in DMAc
Settings | solubility (mole fraction)
278.15 K | 0.0106
283.15 K | 0.0124
288.15 K | 0.0147
293.15 K | 0.017
298.15 K | 0.0199
303.15 K | 0.0227
308.15 K | 0.0259
313.15 K | 0.0298
318.15 K | 0.0343

O=C(O)c1cccc(C(=O)O)c1
in n-propyl acetate
Settings | solubility (mole fraction)
303.2 K | 0.000791
313.2 K | 0.000934
323.2 K | 0.00108
333.2 K | 0.00132
343.2 K | 0.00138
353.2 K | 0.0018
363.2 K | 0.00215

Clc1ccc(OCCCBr)cc1
in ethanol
Settings | solubility (mole fraction)
273.15 K | 0.0219
278.15 K | 0.0281
283.15 K | 0.0366
288.15 K | 0.0488
293.15 K | 0.0658
298.15 K | 0.0933
303.15 K | 0.142

C(=N\Nc1ccccc1)/c1ccc[nH]1
Settings | solubility (mole fraction)
in water, 298.15 K | 5.86e-07
